{"source": "ChEMBL document CHEMBL6083187", "about": "“Current status of the small molecule anti-HIV drugs in the pipeline or recently approved” (Bioorg Med Chem, 2024)", "key": {"[1]": {"tested_on": "Human immunodeficiency virus 1", "test": "Antiviral activity against HIV-1 NL4-3 infected in human MT2 cells assessed as reduction in viral replication", "type": "functional, organism-based", "settings": "Human immunodeficiency virus 1, NL4-3, MT2"}, "[2]": {"tested_on": "Human immunodeficiency virus 2", "test": "Antiviral activity against HIV-2 ROD infected in human MT4 cells assessed as virus-induced cytopathic effect incubated for 5 days by MTT assay", "type": "functional, organism-based", "settings": "Human immunodeficiency virus 2, ROD, MT4, 120 h"}, "[3]": {"target": "T1, Human immunodeficiency virus type 1 integrase (Human immunodeficiency virus 1, UniProt Q7ZJM1)", "T1 sequence (Q7ZJM1 whole entry)": "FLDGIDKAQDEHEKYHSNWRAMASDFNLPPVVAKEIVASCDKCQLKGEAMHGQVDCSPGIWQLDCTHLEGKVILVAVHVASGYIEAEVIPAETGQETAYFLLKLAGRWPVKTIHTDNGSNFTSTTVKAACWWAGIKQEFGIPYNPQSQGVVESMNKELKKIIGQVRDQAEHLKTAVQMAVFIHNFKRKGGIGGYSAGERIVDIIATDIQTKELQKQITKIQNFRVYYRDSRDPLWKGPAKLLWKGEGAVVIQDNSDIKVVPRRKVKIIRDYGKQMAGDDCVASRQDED", "test": "Inhibition of HIV-1 integrase strand transfer activity"}, "[4]": {"test": "Inhibition of Influenza A virus RdRp"}, "[5]": {"target": "T2, Human immunodeficiency virus type 1 reverse transcriptase (Human immunodeficiency virus 1, UniProt Q72547)", "test": "Inhibition of HIV-1 reverse transcriptase"}, "[6]": {"target": "Human immunodeficiency virus type 1 protease (Human immunodeficiency virus 1, UniProt Q72874)", "test": "Inhibition of HIV-1 protease by fluorescence resonance energy transfer analysis"}, "[7]": {"target": "Structural capsid protein (Human immunodeficiency virus 1, UniProt Q76129)", "sequence (Q76129 whole entry)": "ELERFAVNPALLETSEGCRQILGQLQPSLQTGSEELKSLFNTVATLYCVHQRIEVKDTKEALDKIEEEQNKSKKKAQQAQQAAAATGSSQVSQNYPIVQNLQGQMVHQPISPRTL", "test": "Inhibition of HIV-1 NL4-3 monomeric capsid protein"}, "[8]": {"target": "T1, Human immunodeficiency virus type 1 integrase", "test": "Inhibition of HIV-1 NL4-3 integrase"}, "[9]": {"target": "T1, Human immunodeficiency virus type 1 integrase", "test": "Inhibition of HIV-1 BAL integrase strand transfer activity"}, "[10]": {"test": "Tmax in human at 40 mg, po", "type": "ADME", "settings": "in vivo"}, "[11]": {"test": "Half life in human at 20 mg by LC-MS/MS analysis", "type": "ADME", "settings": "in vivo"}, "[12]": {"test": "Half life in human at 40 mg by LC-MS/MS analysis", "type": "ADME", "settings": "in vivo"}, "[13]": {"test": "Tmax in human at 20 mg, po", "type": "ADME", "settings": "in vivo"}, "[14]": {"test": "Cmax in human at 20 mg, po", "type": "ADME", "settings": "in vivo"}, "[15]": {"test": "Cmax in human at 40 mg, po", "type": "ADME", "settings": "in vivo"}, "[16]": {"tested_on": "Human immunodeficiency virus 1", "test": "Antiviral activity against HIV-1", "type": "functional, organism-based"}, "[17]": {"tested_on": "Human immunodeficiency virus 1", "test": "Antiviral activity against HIV1 subtype A clinical isolate UG275", "type": "functional, organism-based", "settings": "Human immunodeficiency virus 1, UG275"}, "[18]": {"target": "T2, Human immunodeficiency virus type 1 reverse transcriptase", "test": "Inhibition of HIV-1 NL4-3 reverse transcriptase"}, "[19]": {"target": "T2, Human immunodeficiency virus type 1 reverse transcriptase", "test": "Inhibition of wild type HIV-1 reverse transcriptase"}}, "data": [{"smiles": "C#C[C@]1(CO)C=C[C@@H](n2cc(C)c(=O)[nH]c2=O)O1", "values": [{"measurement": "EC50", "setting": "[1]", "result": 450, "unit": "nM"}, {"measurement": "EC50", "setting": "[2]", "result": 30, "unit": "nM"}]}, {"smiles": "C=C(C)[C@@H]1CC[C@]2(NCCN3CCS(=O)(=O)CC3)CC[C@]3(C)[C@H](CC[C@@H]4[C@@]5(C)CC=C(c6ccc(C(=O)O)cc6)C(C)(C)[C@@H]5CC[C@]43C)[C@@H]12", "note": "[BMS-955176]", "values": [{"measurement": "IC50", "setting": "[3]", "result": "> 15000", "unit": "nM"}, {"measurement": "IC50", "setting": "[4]", "result": "> 100000", "unit": "nM"}, {"measurement": "IC50", "setting": "[5]", "result": "> 50000", "unit": "nM"}, {"measurement": "IC50", "setting": "[6]", "result": "> 10000", "unit": "nM"}, {"measurement": "IC50", "setting": "[7]", "result": "> 50000", "unit": "nM"}]}, {"smiles": "C[C@H]1CO[C@@H]2Cn3cc(C(=O)NCc4ccc(F)cc4F)c(=O)c(O)c3C(=O)N12", "note": "[CABOTEGRAVIR]", "values": [{"measurement": "IC50", "setting": "[8]", "result": 0.34, "unit": "nM"}, {"measurement": "IC50", "setting": "[9]", "result": 0.22, "unit": "nM"}]}, {"smiles": "CCC(=O)NS(=O)(=O)c1ccc(NC(=O)Cc2ccc(Br)c(Oc3cc(Cl)cc(C#N)c3)c2F)c(Cl)c1", "note": "[ELSULFAVIRINE]", "values": [{"measurement": "Tmax", "setting": "[10]", "result": 1.9, "unit": "h"}, {"measurement": "half-life", "setting": "[11]", "result": 1.7, "unit": "h"}, {"measurement": "half-life", "setting": "[12]", "result": 2.6, "unit": "h"}, {"measurement": "Tmax", "setting": "[13]", "result": 1.1, "unit": "h"}, {"measurement": "Cmax", "setting": "[14]", "result": 7.5, "unit": "ng/mL"}, {"measurement": "Cmax", "setting": "[15]", "result": 10.8, "unit": "ng/mL"}]}, {"smiles": "C=C(C)[C@@H]1CC[C@]2(NCCN3CCS(=O)(=O)CC3)CC[C@]3(C)[C@H](CC[C@@H]4[C@@]5(C)CC=C(C6=CC[C@@](CF)(C(=O)O)CC6)C(C)(C)[C@@H]5CC[C@]43C)[C@@H]12", "note": "[FIPRAVIRIMAT]", "values": [{"measurement": "EC50", "setting": "[16]", "result": 9, "unit": "nM"}, {"measurement": "EC50", "setting": "[17]", "result": 3.5, "unit": "nM"}]}, {"smiles": "Cc1cc(/C=C/C#N)cc(C)c1Nc1ccnc(Nc2ccc(C#N)cc2)n1", "note": "[RILPIVIRINE]", "values": [{"measurement": "IC50", "setting": "[18]", "result": "< 2", "unit": "nM"}, {"measurement": "IC50", "setting": "[19]", "result": 0.24, "unit": "nM"}]}]}
